# What was measured:
# migraine headaches = test: patient history of earlier medication (headache questionnaire prior to institution of therapy); assay type: in vivo, human; conditions: before therapy; for success and side effects of earlier medication: Example 2 patient; for relief of acute pain by abortive agent: Example 1 patient
# Text: There were no accompanying autonomic symptoms. […] The patient was not exposed to xanthines.
# [1] = system: headaches in patients with low serum levels of ionized magnesium; conditions: intravenous infusion of one gram of magnesium; cited from earlier work
# migraine [2] = conditions: 600 mg magnesium orally versus placebo; cited from earlier work
# migraine [3] = conditions: 400 mg oral riboflavin once a day; at four months; cited from earlier work
structure (smiles),measurement,setting,value
CCOC(=O)C1(c2ccccc2)CCN(C)CC1 [Demerol],success and side effects of earlier medication,migraine headaches,varying success with varying side effects
CNS(=O)(=O)Cc1ccc2[nH]cc(CCN(C)C)c2c1 [Imitrex],success and side effects of earlier medication,migraine headaches,varying success with varying side effects
CC(=O)Nc1ccc(O)cc1 [acetaminophen],relief of acute pain by abortive agent,migraine headaches,"some, but incomplete, relief"
CC(=O)Oc1ccccc1C(=O)O [aspirin],relief of acute pain by abortive agent,migraine headaches,"some, but incomplete, relief"
CC(C)Cc1ccc(C(C)C(=O)O)cc1 (stereo not shown) [ibuprofen],relief of acute pain by abortive agent,migraine headaches,"some, but incomplete, relief"
[Mg+2] [magnesium],headache relief,[1],relieved headaches
same,duration of the attacks,migraine [2],"decreased in the magnesium group, but not significantly"
same,frequency of attacks,migraine [2],significant reduction
same,intensity of the attacks,migraine [2],"decreased in the magnesium group, but not significantly"
"Cc1cc2nc3c(=O)[nH]c(=O)nc-3n(C[C@H](O)[C@H](O)[C@H](O)CO)c2cc1C [riboflavin, Riboflavin]",number of days the patients experienced migraine attacks,migraine [3],statistically significant decrease

# Reference: patent US20040048870A1, “Composition for the prevention and treatment of migraine headaches” (priority 2002, published 2004)
